We go through eight compounds from PubChem BioAssay AID644 (The Scripps Research Institute Molecular Screening Center, 2007).

Calls of active or inactive are those of the source.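 Rule for the calls: active = IC50 at or below a set limit; inactive = IC50 above that limit.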 Bounds are passed on as bounds.

The target in this assay is Rho-associated protein kinase 2 (Homo sapiens) (UniProt O75116). The assay can be described thus: human Rho kinase 2 inhibition – biochemical, Kinase-Glo luminescence, S6 peptide, 1536-well, dose response (AID 644). The following applies: recombinant ROCK2, S6 peptide, Kinase-Glo ATP luminescence.
Sequence of Rho-associated protein kinase 2 (Homo sapiens) (O75116 whole entry, looked up): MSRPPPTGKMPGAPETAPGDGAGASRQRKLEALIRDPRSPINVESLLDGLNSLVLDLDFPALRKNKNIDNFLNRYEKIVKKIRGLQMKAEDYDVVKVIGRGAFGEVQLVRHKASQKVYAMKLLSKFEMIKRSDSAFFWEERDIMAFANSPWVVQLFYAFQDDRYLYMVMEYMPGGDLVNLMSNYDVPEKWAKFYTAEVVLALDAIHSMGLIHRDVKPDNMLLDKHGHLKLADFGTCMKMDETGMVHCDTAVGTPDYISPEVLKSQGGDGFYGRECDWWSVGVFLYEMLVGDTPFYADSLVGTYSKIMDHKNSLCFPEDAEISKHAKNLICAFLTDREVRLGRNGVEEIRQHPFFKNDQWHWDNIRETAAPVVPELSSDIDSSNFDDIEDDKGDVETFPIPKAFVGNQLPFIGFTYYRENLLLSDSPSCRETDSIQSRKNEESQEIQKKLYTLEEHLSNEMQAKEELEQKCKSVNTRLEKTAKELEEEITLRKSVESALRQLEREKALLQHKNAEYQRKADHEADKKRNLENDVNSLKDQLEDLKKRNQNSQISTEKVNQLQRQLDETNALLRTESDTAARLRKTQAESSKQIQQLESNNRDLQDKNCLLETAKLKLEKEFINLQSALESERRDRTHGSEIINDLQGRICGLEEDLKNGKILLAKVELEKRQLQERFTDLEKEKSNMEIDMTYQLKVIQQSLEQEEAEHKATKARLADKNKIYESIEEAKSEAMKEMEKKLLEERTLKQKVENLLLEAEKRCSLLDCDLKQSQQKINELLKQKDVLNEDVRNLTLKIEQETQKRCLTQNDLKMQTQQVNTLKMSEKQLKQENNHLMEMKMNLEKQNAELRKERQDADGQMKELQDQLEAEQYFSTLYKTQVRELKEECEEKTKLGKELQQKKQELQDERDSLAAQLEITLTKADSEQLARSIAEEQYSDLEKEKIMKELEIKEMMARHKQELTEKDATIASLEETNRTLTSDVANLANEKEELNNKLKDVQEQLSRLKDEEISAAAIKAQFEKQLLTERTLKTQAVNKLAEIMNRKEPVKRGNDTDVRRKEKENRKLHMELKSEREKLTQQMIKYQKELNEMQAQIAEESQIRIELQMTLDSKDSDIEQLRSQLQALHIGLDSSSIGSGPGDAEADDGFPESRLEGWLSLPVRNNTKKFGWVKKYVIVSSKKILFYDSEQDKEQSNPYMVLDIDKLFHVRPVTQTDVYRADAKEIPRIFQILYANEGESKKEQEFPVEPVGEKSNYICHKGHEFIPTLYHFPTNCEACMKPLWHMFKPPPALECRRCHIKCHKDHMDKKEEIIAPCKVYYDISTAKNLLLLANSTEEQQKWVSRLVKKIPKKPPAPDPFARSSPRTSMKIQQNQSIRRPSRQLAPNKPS

For `COc1cc(N=Cc2c(O)[nH]c3ccccc23)cc(OC)c1OC`, the IC50 entry is “inactive”. The same measure for `CC1=NN(c2ccccc2)C(=O)C1`: > 59.6 µM (inactive); for `COC(=O)c1cccc2c1-c1ccccc1/C2=N/O`: > 19.9 µM (inactive).

On to `CN1/C(=N\O)c2cccc3cccc1c23`, for which the IC50 is > 19.9 µM (inactive). Regarding `CN(C(=O)c1cccc(N2C(=O)C3CC=CCC3C2=O)c1)C1CCCCC1` (stereo not drawn), the IC50 was > 59.6 µM (inactive). Take `Cc1[nH]nc2c1C(c1ccc(-c3ccccc3C#N)o1)C(C#N)=C(N)O2` (stereo not drawn): the IC50 was > 19.9 µM (inactive). With `O/N=C/c1c[nH]c2ccccc12`, the IC50 was 4.81 µM. With `CCOC(=O)C1=C(CSc2nc(-c3ccncc3)ccc2C#N)OC(N)=C(C#N)C1c1cccnc1` (stereo not drawn) the figure was > 19.9 µM (inactive).
